The values that follow are results of earlier work, collected in article PMC7019903 (Viruses, 2020).

By EC50 is commonly meant the concentration needed to bring the measured effect to its halfway point.

This data set has as its system HTNV. The conditions noted are these: read-out: EC50 against HTNV; cited from earlier work.

In the case of `C#Cc1ncn([C@@H]2O[C@H](CO)[C@@H](O)[C@H]2O)n1` [ETAR, 1-beta-d-ribofuranosyl-3-ethynyl-[1,2,4] triazole], the EC50 is 10 µM.

Take `NC(=O)c1nc(F)c[nH]c1=O` [Favipiravir]: the concentration for a half-maximal effect (EC50) was 151 µM.
